Like-named read-outs stand apart in the source and are kept apart here.
Key:
[1] = Pharmacokinetic study in rats (plasma and red blood cell); type: in vivo; conditions: male, Sprague-Dawley, rat, oral, 7.2 mg/kg
Description: Rats (Sprague-Dawley, male, 220-280 g) were dosed with GBT-440 (HCl salt) and one of three compounds corresponding to Example 27, 29, and 38. The rats received oral (7.2 mpk) doses of the compound. Rats were fasted overnight before the experiments and provided with food four hours after dosing. The oral dosing formulations was prepared as follows: approximately 10 mg of compound was weighed precisely to an appropriate size of container, to which was added 2 mL of vehicle 0.5% methylcellulose in water and 8 μL 0.5% sodium dodecyl sulfate. The mixture was then transferred into a glass vial, and volume adjusted to appropriate volume with 0.5% methylcellulose to obtain a final concentration of 0.72 mg·mL^−1, and then vortexed and sonicated briefly.
Whole blood sample collection: Blood samples ([…]) were collected at pre-dose, 15, 30 min, 1, 2, 4, 8, 12 and 24 h via jugular vein into tubes and anticoagulated with 3.2% TSC (trisodium citrate). The proportion of anticoagulant and blood was 1:9 (v/v). The sampling time was recorded accordingly. The tubes were gently inverted several times to ensure mixing. Then 10 μL doses of whole blood sample was transferred to a new EP tube and duplicated in wet ice.
Plasma sample collection: The remaining whole blood was processed by centrifugation at 5,500 rpm for 10 min. The supernate was collected. All these whole blood and plasma samples were kept below −20° C. for 1 h prior to analysis.
(§1) Plasma sample preparation: An aliquot of 20 μL of sample was transferred to sample treatment tube (1.5 mL EP tube), and then 100 μL ACN (0.5% FA) containing Verapamil, 5 ng·mL^−1 and Glibenclamide, 50 ng·mL^−1 for protein precipitation was added. The mixture was vortexed for 30 min, and then centrifuged at 13000 rpm for 5 min at room temperature. After that, 70 μL of supernatant was transferred to a 96-Well Plate, to which 70 μL of water added and then vortexed for 10 min at room temperature. An aliquot of 10 μL of this mixture was analyzied using LC-MS/MS.
as §1, with “Whole blood” for “Plasma”, “10” for “20”, “500” for “100”, “water was” for “water”, “analyzed” for “analyzied”
Plasma and red blood cell concentration-time data were processed by linear regression analysis. All pharmacokinetic parameters were calculated using non-compartment model of Pharsight Phoenix 6.3.
Red blood cell concentrations were calculated according to the method below: Mass balance equation: Cb·VB=Cp·Vp+CBC·VBC Where, Cb=Concentration of whole blood; VB=Volume of whole blood; Cp=Concentration of plasma; Vp=Volume of plasma; CBC=Concentration of blood cell; VBC=Volume of blood cell. VBC=H·VB, where H is the hematocrit number. Vp=(1−H)·VB

[2] = Microsome stability evaluation in human liver microsomes; type: in vitro ADME; conditions: read-out: Human microsome, t½
Description: Example A6: Microsome Stability Evaluation in Human and Rat Liver Microsomes

[3] = test system: sickled HbSS whole blood (RBC sickling); experiment: Anti-sickling assay in HbSS sickled blood under hypoxic induction; type: cell-based, human; conditions: HbSS whole blood 26% Hct, 20 mins hypoxic induction; 0.2 mM compounds (FIG. 2)
Description: Materials: • Blood collected after informed consent from sickle cell individuals. • HBS buffer: 10 mM HEPES, 145 mM NaCl, pH 7.4 • Hemox buffer: Buffer provided for the hemox analyzer • Control Compound stock solution in DMSO (50 mM) stored at RT • Control Compound work solution (CWS): 10 μl of DMSO was added by Hamilton to 90 μl of HBS buffer (20 mM Hepes, 145 mM NaCl, pH 7.4) to create a working solution with a final concentration of 5 mM drug and 10% DMSO). • Compound stock solution in DMSO (50 mM) stored at RT • Compound work solution (WS): 10 μl of DMSO was added by Hamilton to 90 μl of HBS buffer (20 mM Hepes, 145 mM NaCl, pH 7.4) to create a working solution with a final concentration of 5 mM drug and 10% DMSO). • DMSO buffer: 10% DMSO (DB), same as WS but without drug. This will be used to maintain DMSO the same for different drug incubations. Test Protocol:
Collect blood from Clinic: Blood were collected after informed consent according to an approved IRB protocol. • Run Advia 120 analysis on SCD blood, to determine Hct. • Dilute blood to 20% Hct with HBS to total volume of 3 ml. • This cell suspension (CS) will be used for all experiments.
Incubation • 1. 200 μl CS • 2. 200 μl CS+20 μl CWS (5 mM diluted 10 times=0.5 mM control final)−(1% DMSO) • 3. 200 μl CS+20 μl WS (5 mM diluted 10 times=0.5 mM control final)−(1% DMSO) • 4. 200 μl CS+8 μl WS (0.2 mM drug final)+DB−(1% DMSO) • Incubate 30 minutes at 37° C.
50 μl into 1 ml HBS+2% BSA buffer. Eight time points (0-20 minutes) at 2% oxygen, 10,000 events each)
The sickling runs provide sets samples that need to be run on the AMNIS image flow and are subsequently analyzed with pixel analysis software.
Drug was provided at 50 mM concentration in DMSO, and stored at room temperature until use. 10 μl of DMSO was added by Hamilton to 90 μl of HBS buffer (20 mM Hepes, 145 mM NaCl, pH 7.4) to create a working solution with a final concentration of 5 mM drug and 10% DMSO). Blood was collected from a sickle cell patient in EDTA anticoagulant. To 200 μl of whole blood, a 20 or 8 μl of working solution was added resulting in a final drug concentration of 0.5 mM or 0.2 mM respectively. The DMSO concentration in both was corrected to 1%. The final hematocrit was measured by ADVIA analysis to be 26%. […] The delta hemox (%) comparing Example 29e with GBT440 is shown in FIG. 1A (0.2 mM) and FIG. 1B (0.5 mM).
Anti-sickling is shown in FIG. 2 with M: maximum percentage of sickled cells during 20 mins of hypoxic induction, T: time needed to reach 50% of M, and Z: baseline percentage of sickled cells prior to hypoxic induction.

AUC(0-t) ([1]; red blood cells, red blood cell (calculated by mass balance from whole blood and plasma), read-out: AUC0-24 h RBC): 1730 µg·h/mL
Cmax ([1]; red blood cells, red blood cell (calculated by mass balance from whole blood and plasma), read-out: Cmax RBC): 116 µg/mL
half-life ([1]; red blood cells, red blood cell, read-out: T1/2 RBC (converted)): 660 min
AUC(0-t) ([1]; plasma, read-out: AUC0-24 h Plasma): 10.7 µg·h/mL
Cmax ([1]; plasma, read-out: Cmax Plasma): 0.753 µg/mL
half-life ([1]; plasma, read-out: T1/2 Plasma (converted)): 660 min
half-life [2]: 38 min
SMILES: [2H]C([2H])(Oc1cccc(O)c1C=O)c1cncnc1-c1ccnn1C(C)C [Example 38, 2-hydroxy-6-((4-(1-isopropyl-1H-pyrazol-5-yl)pyrimidin-5-yl)methoxy-d2)benzaldehyde]
Reduction in % sickled cells compared to untreated [3]: −30.6%

— patent US10787430B2, “Hemoglobin modifier compounds and uses thereof” (FronThera U.S. Pharmaceuticals LLC, priority 2016, dated 2020)
